In brackets after ≈: the same amount, converted by molar mass. Square brackets hold non-standard residues; d marks the D form. Peptide text beside a SMILES is read from it. Bip = N[C@@H](Cc1ccc(-c2ccccc2)cc1)C(=O)O; hPhe = N[C@@H](CCc1ccccc1)C(=O)O; Ahp(2) = CCCCC[C@H](N)C(=O)O; hSer = N[C@@H](CCO)C(=O)O; NMeA = CN[C@@H](C)C(=O)O; Nle = CCCC[C@H](N)C(=O)O; Dap = NC[C@H](N)C(=O)O
Key:
[1] = tested on: E. coli BW25113; assay type: cell-based, Escherichia coli; conditions: Table 8
How it was run: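 Growth inhibition: log-phase cells (OD600 ~0.001), peptides in 2-fold series up to 400–800 μM in MHB II, EDTA 0.5 mM (E. coli) or 0.125 mM (USA300), 4 h at 37 °C, ATP luminescence readout. MICs: inoculum at OD600 ~0.0002, with or without EDTA, 20 h at 37 °C, OD600 endpoint.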

[2] = tested on: K. pneumoniae; assay type: cell-based, Klebsiella pneumoniae; conditions: Table 8
Method: (§1) Bacterial growth conditions. LB or Mueller Hinton II cation-adjusted broth (MHB II, BBL 212322) was prepared according to manufacturer's instructions and supplemented with arabinose at 0.02% for overnight growth or at indicated concentrations in the description of the figures. Bacterial cultures were grown at 37° C. When appropriate, media was supplemented with kanamycin (50 μg/mL), carbenicillin (50 μg/mL), chloramphenicol (12.5 or 25 μg/mL), hygromycin (200 μg/mL), and/or gentamicin (10 μg/mL).
(§2) Peptide sensitivity and MIC assays. Lyophilized peptides (Smartox Biotechnology, CPC Scientific. ABclonal) were solubilized to 10 mM in Tris buffer, pH 8, prior to making a 2-fold dilution series in MHBII cation adjusted broth with highest final assay concentration of 400-800 μM. Bacteria were grown to log phase and added to final OD600˜0.001. The final EDTA concentration was 0.5 mM for E. coli strains and 0.125 mM for USA300. The final volume of 10 μL/well in a 384 well black, clear bottom plate (Corning) was spun <1 min at <250×g and then incubated at 37° C. After 4 h, an equal volume (10 μL) of BacTiter-Glo™ (Promega) was added to each well and luminescence was read after 5 min on an EnVision plate reader (PerkinElmer). To measure the minimal inhibitory concentrations (MICs), bacteria from fresh overnight plates or log phase cultures were diluted with or without EDTA and peptides as described above to final OD600˜0.0002. Plates were incubated at 37° C. for 20 h before measuring OD600 with an EnVision plate reader.

[3] = tested on: A. baumannii; assay type: cell-based, Acinetobacter baumannii; conditions: Table 8
Method: as §1, §2

[4] = tested on: P. aeruginosa; assay type: cell-based, Pseudomonas aeruginosa; conditions: Table 8
Method: as §1, §2

[5] = tested on: E. coli ΔwaaD MCR-1; assay: MIC assay, E. coli ΔwaaD MCR-1; assay type: cell-based, Escherichia coli; conditions: Table 7
Method: as §1, §2

[6] = tested on: E. coli ΔwaaD + vect.; assay: MIC assay, E. coli ΔwaaD + vect.; assay type: cell-based, Escherichia coli; conditions: Table 7
Method: as §1, §2

[7] = tested on: E. coli imp4213; assay: MIC assay, E. coli imp4213; assay type: cell-based, Escherichia coli; conditions: Table 7
Method: as §1, §2

Row | Compound | MIC E. coli BW25113 [1] | MIC K. pneumoniae [2] | MIC A. baumannii [3] [µM] | MIC R. aeruginosa [4] [µM] | MIC E coli ΔwaaD − MCR1 [5] [µM] | MIC E. coli ΔwaaD + vect. [6] [µM] | MIC E. coli imp4213 [7] [µM]
1 | CCCC[C@H](NC(=O)[C@@H]1CCCN1C(=O)[C@H](Cc1ccc(O)cc1)NC(C)=O)C(=O)N[C@H](C(=O)N[C@@H](C)C(=O)N[C@@H](CCCNC(=N)N)C(=O)N[C@@H](CCCNC(=N)N)C(=O)N[C@@H](Cc1ccccc1)C(=O)N[C@@H](CC(C)C)C(=O)N[C@@H](CCC(=O)O)C(=O)N[C@@H](CCCCN)C(=O)N[C@@H](Cc1c[nH]c2ccccc12)C(=O)NCC(=O)N[C@@H](CC(C)C)C(=O)N[C@@H](CC(C)C)C(=O)N[C@@H](CCCNC(=N)N)C(N)=O)[C@@H](C)O [compound 62] (Ac-YP[Nle]TARRFLEKWGLLR-NH2) | 400 µM (≈ 824 µg/mL) | 200 µM (≈ 412 µg/mL) | 200 (≈ 412 µg/mL) | 200 (≈ 412 µg/mL) | 200 (≈ 412 µg/mL) | <6.25 | 
2 | CSCC[C@H](NC(=O)[C@@H]1CCCN1C(=O)[C@H](Cc1ccc(O)cc1)NC(C)=O)C(=O)N[C@H](C(=O)N(C)[C@@H](C)C(=O)N[C@@H](CCCNC(=N)N)C(=O)N[C@@H](CCCNC(=N)N)C(=O)N[C@@H](Cc1ccccc1)C(=O)N[C@@H](CC(C)C)C(=O)N[C@@H](CCC(=O)O)C(=O)N[C@@H](CCCCN)C(=O)N[C@@H](Cc1c[nH]c2ccccc12)C(=O)NCC(=O)N[C@@H](CC(C)C)C(=O)N[C@@H](CC(C)C)C(=O)N[C@@H](CCCNC(=N)N)C(N)=O)[C@@H](C)O [compound 64] (Ac-YPMT[NMeA]RRFLEKWGLLR-NH2) | 400 µM (≈ 837 µg/mL) | None/400 | 400 (≈ 837 µg/mL) | 400 (≈ 837 µg/mL) | 400 (≈ 837 µg/mL) | <6.25 | 12.5 (≈ 26.2 µg/mL)
3 | CSCC[C@H](NC(=O)[C@@H]1CCCN1C(=O)[C@H](Cc1ccc(O)cc1)NC(C)=O)C(=O)N[C@@H](CN)C(=O)N[C@@H](C)C(=O)N[C@@H](CCCNC(=N)N)C(=O)N[C@@H](CCCNC(=N)N)C(=O)N[C@@H](Cc1ccc(-c2ccccc2)cc1)C(=O)N[C@@H](CC(C)C)C(=O)N[C@@H](CCC(=O)O)C(=O)N[C@@H](CCCCN)C(=O)N[C@@H](Cc1c[nH]c2ccccc12)C(=O)NCC(=O)N[C@@H](CC(C)C)C(=O)N[C@@H](CC(C)C)C(=O)N[C@@H](CCCNC(=N)N)C(N)=O [compound 80] (Ac-YPM[Dap]ARR[Bip]LEKWGLLR-NH2) | 12.5 µM (≈ 26.7 µg/mL) | 12.5 µM (≈ 26.7 µg/mL) | 12.5 (≈ 26.7 µg/mL) | 25.0 (≈ 53.5 µg/mL) |  |  | 
4 | Ac-YPMTLRRFLEKWGLLR-NH2 [compound 83] | 200.0 µM | 100.0 µM | 50.0 | 200.0 |  |  | 
5 | CSCC[C@H](NC(=O)[C@@H]1CCCN1C(=O)[C@H](Cc1ccc(O)cc1)NC(C)=O)C(=O)N[C@H](C(=O)N[C@H](C)C(=O)N[C@@H](CCCNC(=N)N)C(=O)N[C@@H](CCCNC(=N)N)C(=O)N[C@@H](Cc1ccccc1)C(=O)N[C@@H](CC(C)C)C(=O)N[C@@H](CCC(=O)O)C(=O)N[C@@H](CCCCN)C(=O)N[C@@H](Cc1c[nH]c2ccccc12)C(=O)NCC(=O)N[C@@H](CC(C)C)C(=O)N[C@@H](CC(C)C)C(=O)N[C@@H](CCCNC(=N)N)C(N)=O)[C@@H](C)O [compound 92] (Ac-YPMT[dA]RRFLEKWGLLR-NH2) | 200.0 µM (≈ 416 µg/mL) | >400.0 µM | 200.0 (≈ 416 µg/mL) | >400.0 |  |  | 
6 | CSCC[C@H](NC(=O)[C@@H]1CCCN1C(=O)[C@H](Cc1ccc(O)cc1)NC(C)=O)C(=O)N[C@H](C(=O)N[C@@H](C)C(=O)N[C@@H](CCCNC(=N)N)C(=O)N[C@@H](CCCNC(=N)N)C(=O)N[C@@H](Cc1ccc(-c2ccccc2)cc1)C(=O)N[C@@H](CC(C)C)C(=O)N[C@@H](C)C(=O)N[C@@H](CCCCN)C(=O)N[C@@H](Cc1c[nH]c2ccccc12)C(=O)NCC(=O)N[C@@H](CC(C)C)C(=O)N[C@@H](CC(C)C)C(=O)N[C@@H](CCCNC(=N)N)C(N)=O)[C@@H](C)O [compound 88] (Ac-YPMTARR[Bip]LAKWGLLR-NH2) | 100.0 µM (≈ 210 µg/mL) | 25.0 µM (≈ 52.4 µg/mL) | 12.5 (≈ 26.2 µg/mL) | 25.0 (≈ 52.4 µg/mL) |  |  | 
7 | CCCCC[C@H](NC(=O)[C@@H](NC(=O)[C@H](CCSC)NC(=O)[C@@H]1CCCN1C(=O)[C@H](Cc1ccc(O)cc1)NC(C)=O)[C@@H](C)O)C(=O)N[C@@H](CCCNC(=N)N)C(=O)N[C@@H](CCCNC(=N)N)C(=O)N[C@@H](Cc1ccccc1)C(=O)N[C@@H](CC(C)C)C(=O)N[C@@H](CCC(=O)O)C(=O)N[C@@H](CCCCN)C(=O)N[C@@H](Cc1c[nH]c2ccccc12)C(=O)NCC(=O)N[C@@H](CC(C)C)C(=O)N[C@@H](CC(C)C)C(=O)N[C@@H](CCCNC(=N)N)C(N)=O [compound 71] (Ac-YPMT[Ahp(2)]RRFLEKWGLLR-NH2) | 100 µM (≈ 213 µg/mL) | 50 µM (≈ 107 µg/mL) | <6.25 | 50 (≈ 107 µg/mL) |  |  | 
8 | CSCC[C@H](NC(=O)[C@@H]1CCCN1C(=O)[C@H](Cc1ccc(O)cc1)NC(C)=O)C(=O)N[C@@H](CN)C(=O)N[C@@H](Cc1ccccc1)C(=O)N[C@@H](CCCNC(=N)N)C(=O)N[C@@H](CCCNC(=N)N)C(=O)N[C@@H](Cc1ccc(-c2ccccc2)cc1)C(=O)N[C@@H](CC(C)C)C(=O)N[C@@H](CCC(=O)O)C(=O)N[C@@H](CCCCN)C(=O)N[C@@H](Cc1c[nH]c2ccccc12)C(=O)NCC(=O)N[C@@H](CC(C)C)C(=O)N[C@@H](CC(C)C)C(=O)N[C@@H](CCCNC(=N)N)C(N)=O [compound 90] (Ac-YPM[Dap]FRR[Bip]LEKWGLLR-NH2) | 200.0 µM (≈ 443 µg/mL) | 50.0 µM (≈ 111 µg/mL) | 6.25 (≈ 13.8 µg/mL) | 25.0 (≈ 55.4 µg/mL) |  |  | 
9 | Ac-YPMTARRFLQKWGLLR-NH2 [compound 72] | 400 µM | 400 µM | 50 | 800 |  |  | 
10 | CSCC[C@H](NC(=O)[C@@H]1CCCN1C(=O)[C@H](CCCNC(=N)N)NC(C)=O)C(=O)N[C@H](C(=O)N[C@@H](C)C(=O)N[C@@H](CCCNC(=N)N)C(=O)N[C@@H](CCCNC(=N)N)C(=O)N[C@@H](Cc1ccc(-c2ccccc2)cc1)C(=O)N[C@@H](CC(C)C)C(=O)N[C@@H](CCC(=O)O)C(=O)N[C@@H](CCCCN)C(=O)N[C@@H](Cc1c[nH]c2ccccc12)C(=O)NCC(=O)N[C@@H](CC(C)C)C(N)=O)[C@@H](C)O [compound 207] (Ac-RPMTARR[Bip]LEKWGL-NH2) | 100.0 µM (≈ 188 µg/mL) | 100.0 µM (≈ 188 µg/mL) | 100.0 (≈ 188 µg/mL) | 100.0 (≈ 188 µg/mL) |  |  | 
11 | Ac-RPMTARRWLEKRGL-NH2 [compound 202] | 50.0 µM | >400.0 µM | >400.0 | >400.0 |  |  | 
12 | CSCC[C@H](NC(=O)[C@@H]1CCCN1C(=O)[C@H](Cc1ccc(O)cc1)NC(C)=O)C(=O)N[C@H](C(=O)N[C@@H](C)C(=O)N[C@@H](CCCNC(=N)N)C(=O)N[C@@H](CCCNC(=N)N)C(=O)N[C@@H](CCc1ccccc1)C(=O)N[C@@H](CC(C)C)C(=O)N[C@@H](CCC(=O)O)C(=O)N[C@@H](CCCCN)C(=O)N[C@@H](Cc1c[nH]c2ccccc12)C(=O)NCC(=O)N[C@@H](CC(C)C)C(=O)N[C@@H](CC(C)C)C(=O)N[C@@H](CCCNC(=N)N)C(N)=O)[C@@H](C)O [compound 84] (Ac-YPMTARR[hPhe]LEKWGLLR-NH2) | 50.0 µM (≈ 105 µg/mL) | 50.0 µM (≈ 105 µg/mL) | 25.0 (≈ 52.3 µg/mL) | 200.0 (≈ 419 µg/mL) |  |  | 
13 | Ac-YPMTFRRFLAKWGLLR-NH2 [compound 87] | 100.0 µM | 25.0 µM | 25.0 | 50.0 |  |  | 
14 | CSCC[C@H](NC(=O)[C@@H]1CCCN1C(=O)[C@H](Cc1ccc(O)cc1)NC(C)=O)C(=O)N[C@@H](CCO)C(=O)N[C@@H](C)C(=O)N[C@@H](CCCNC(=N)N)C(=O)N[C@@H](CCCNC(=N)N)C(=O)N[C@@H](Cc1ccccc1)C(=O)N[C@@H](CC(C)C)C(=O)N[C@@H](CCC(=O)O)C(=O)N[C@@H](CCCCN)C(=O)N[C@@H](Cc1c[nH]c2ccccc12)C(=O)NCC(=O)N[C@@H](CC(C)C)C(=O)N[C@@H](CC(C)C)C(=O)N[C@@H](CCCNC(=N)N)C(N)=O [compound 63] (Ac-YPM[hSer]ARRFLEKWGLLR-NH2) | 400/200 | 200 µM (≈ 416 µg/mL) | 200 (≈ 416 µg/mL) | 400 (≈ 831 µg/mL) | 200 (≈ 416 µg/mL) | <6.25 | 

From patent US20220135622A1, “ANTIBACTERIAL PEPTIDES AND METHODS OF USE” (priority 2019, published 2022)
